US6399618B1, “Compositions and methods for modulating sexual activity” (priority 1997, dated 2002)
Where a name gives a salt, the structure may show the parent alone. Marks after values point to notes of the source that are not given here.

Columns and labels:
male rats [1] = assay: Rat sexual behavior, proerectile actions (injected); format: in vivo, SD rats; settings: for Erections/60 minutes / Latency to the first erection: mean±sem; for Erections/60 minutes / Latency to the first erection / Responders: n=10
Protocol: Male SD rats (350-450 g; n=10 per group) were injected with increasing doses of XVIb (4.0-64.0 mg/kg), XVIa (1.0, 4.0 or 16 mg/kg) or saline and observed 5 minutes later, in groups of 5, for the number of erections and the time to the first erection, over a 60 minutes observation period.
In Table 2, the effects of XVIb, XVIa and saline on erection in male rats is indicated. Data is expressed as the mean±sem for 10 test animals. Data marked with an asterisk “*” indicate significant difference from saline (α<0.05) as determined by ANOVA with Tukey test for multiple comparisons.

male rats [2] = assay: Antagonism of XVIb-induced erections by comparative compounds in rats; format: in vivo, SD rats; settings: XVIb 16 mg/kg ip; n=6
Protocol: Male SD rats (300-500 g; n=6 per group) were injected with (±)-Pindolol, scopolamine, haloperidol, or ketanserin, 30 minutes prior to injection of a single dose of XVIb (16 mg/kg, ip) or saline.

male primates [3] = assay: Primate sexual behavior, isolated observation study; format: in vivo, Macaca fascilaris; settings: for # of behavioral Purse Lip Gesture / # of behavioral Yawning / Grade 0 (glans hidden from view) / Grade 1 (glans clearly visible) / Grade 2 (penis extended) / Grade 3 (full erection) / Grade 4 (erection with masturbation) / Grade 5 (erection with masturbation and ejaculation): isolation, 1 hour, n=6
Protocol: Adult male Macaca fascilaris (3.8-8 kg, n=6) were injected (0.1-10.0 mg/kg; ip; 0.5 mL/kg body weight) with either saline or compound XVIb and observed 10 minutes later for behavioral responses and locomotion for 1 hour. Monkeys used for testing were injected and observed in separate locations remote from housing environment. Each monkey received a dose of XVIb at 72 hour intervals.
In Table 4, the effect of compound XVIb on erectile responses is reported for male primates observed in isolation. Data are expressed as mean (sem, standard error of measurements) for 6 test animals. Penile responses were scored every 10 seconds for 1 hour according to the following scale: Grade 0=glans hidden from view, Grade 1=glans clearly visible, Grade 2=penis extended, Grade 3=full erection, Grade 4=erection with masturbation, Grade 5=erection with masturbation and ejaculation. In Table 4, data marked with an asterisk “*” indicate a significant difference from saline as determined by repeated measures ANOVA and Dunnetts test for multiple comparisons (α<0.05). The data in Table 4 are reported as % genital observations.

male rats [4] = assay: Rat sexual behavior, proerectile actions after oral administration; format: in vivo, SD rats
Protocol: Male SD rats (250-300 g) were administered increasing doses of XVIb (30-100 mg/kg in distilled water, per os) or distilled water only via a feeding tube, and observed 5 minutes later for the number of erections (as characterized by penile grooming) over a 60 minute observation period. Six rats at a time, housed singly, were observed by two observers. Treatments were administered in a standard randomized and double blinded manner.

male rats [5] = assay: Rat behavior, blood chemistry and body temperature; format: in vivo, SD rats
Protocol: Male SD rats (350-450 g; n=15 per group) were injected with a single dose of XVIb (16 mg/kg, ip) and saline and observed 5 minutes later, in pairs, for erections, ejaculation, movement and grooming over a 60 minute observation period. Rectal temperature was recorded before drug administration and 1 hour after drug administration. At the end of experiments rats were decapitated and trunk blood was collected for RIA analysis of serum cortisol and prolactin levels.

male primates [6] = assay: Sexual behavior in male primates, paired observation study (penile response grades); format: in vivo, macaca fascilaris; settings: 1.0 mg/kg ip; N=3; observed 1 hour
Protocol: Monkeys used for testing were separated from the cluster of cages and treated and observed in pairs in the middle of the housing environment.
N=3 for all drug-treated animals, while N=18 for saline-treated animals. […] Data are expressed as the number of test animals having a particular grade of penile response. Penile responses were scored every 10 sec for 1 hour according to the following scale:
Grade 0=glans are hidden from the view
Grade 1=glans are clearly visible
Grade 2=penis is extended
Grade 4=erection with masturbation
Grade 5=erection with masturbation and ejaculation

[7] = system: noradrenaline pre-contracted rabbit CC; assay: Direct action on penile erection: tone of corpus cavernosal muscle strips in organ bath; settings: concentration from 10^-8 M to 10^-4 M; n=6
Protocol: Corpus cavernosal (CC) muscle strips were prepared from penises obtained from rabbit (n=6). CC strips were dissected free from tunica albungia and mounted in 10 or 25 mL organ baths containing Tyrode solution saturated with 95%O2/5% CO2 mixture.

[8] = 16 mg/kg ip, RIA of trunk blood at end of experiment

`CN1CCN(C(=O)Cc2ccc3ccccc3c2)CC1` [Compound XVIb, 1-Methyl-4(2-naphthaleneacetyl)piperazine monohydrochloride] was tested, and the Erections/60 minutes (male rats [1]; 4.0 mg/kg) was 2.1 ± 0.4, the “Latency to the first erection” value (male rats [1]; 4.0 mg/kg) was 2390 ± 238 s and the Responders (male rats [1]; 4.0 mg/kg) was 100%. The Erections/60 minutes (male rats [1]; 8.0 mg/kg) was 5.1 ± 0.6* #, the “Latency to the first erection” value (male rats [1]; 8.0 mg/kg) was 1299 ± 214 s and the Responders (male rats [1]; 8.0 mg/kg) was 100%. For the same compound, the Erections/60 minutes (male rats [1]; 16.0 mg/kg) was 7.7 ± 0.4* #, the “Latency to the first erection” value (male rats [1]; 16.0 mg/kg) was 654 ± 108* sec and the Responders (male rats [1]; 16.0 mg/kg) was 100%. The Erections/60 minutes (male rats [1]; 32.0 mg/kg) was 2.5 ± 0.2, the “Latency to the first erection” value (male rats [1]; 32.0 mg/kg) was 1046 ± 64* sec and the Responders (male rats [1]; 32.0 mg/kg) was 100%. For the same compound, the Erections/60 minutes (male rats [1]; 64.0 mg/kg) was 2.7 ± 0.5, the “Latency to the first erection” value (male rats [1]; 64.0 mg/kg) was 3319 ± 170* sec and the Responders (male rats [1]; 64.0 mg/kg) was 100%. The “effect on penile erections (in words)” value (male rats [1]; 60 minutes observation) was “produced erections in rats in a bell shaped dose-response fashion”, the “dose at which the maximal effect on erections was observed” value (male rats [1]; doses 4.0-64.0 mg/kg) was 16 mg/kg and the “dose with minimal time to the first erection” value (male rats [1]; doses 4.0-64.0 mg/kg) was 16 mg/kg. For the same compound, the “erections with XVIb without antagonist (pindolol comparison)” value (male rats [2]) was 7.8±1.4 erections/60 minutes, the “erections with XVIb without antagonist (scopolamine comparison)” value (male rats [2]) was 1.7 erections/60 minutes and the “# of behavioral Purse Lip Gesture” value (male primates [3]; 0.1 mg/kg ip) was 5.8 ± 3.9 #. The “# of behavioral Yawning” value (male primates [3]; 0.1 mg/kg ip) was 8.8 ± 4.5 #, the “Grade 0 (glans hidden from view)” value (male primates [3]; 0.1 mg/kg ip) was 81.8 ± 8.2 % genital observations and the “Grade 1 (glans clearly visible)” value (male primates [3]; 0.1 mg/kg ip) was 17.8 ± 7.9 % genital observations. The “Grade 2 (penis extended)” value (male primates [3]; 0.1 mg/kg ip) was 0.4 ± 0.3 % genital observations, the “Grade 3 (full erection)” value (male primates [3]; 0.1 mg/kg ip) was 0 ± 0 % genital observations and the “Grade 4 (erection with masturbation)” value (male primates [3]; 0.1 mg/kg ip) was 0 ± 0 % genital observations. For the same compound, the “Grade 5 (erection with masturbation and ejaculation)” value (male primates [3]; 0.1 mg/kg ip) was 0 ± 0 % genital observations, the “# of behavioral Purse Lip Gesture” value (male primates [3]; 0.3 mg/kg ip) was 10.2 ± 3.9 # and the “# of behavioral Yawning” value (male primates [3]; 0.3 mg/kg ip) was 11.7 ± 3.8 #. The “Grade 0 (glans hidden from view)” value (male primates [3]; 0.3 mg/kg ip) was 67.3 ± 12.2 % genital observations, the “Grade 1 (glans clearly visible)” value (male primates [3]; 0.3 mg/kg ip) was 32.8 ± 11.5 % genital observations and the “Grade 2 (penis extended)” value (male primates [3]; 0.3 mg/kg ip) was 0.5 ± 0.5 % genital observations. For the same compound, the “Grade 3 (full erection)” value (male primates [3]; 0.3 mg/kg ip) was 0 ± 0 % genital observations, the “Grade 4 (erection with masturbation)” value (male primates [3]; 0.3 mg/kg ip) was 0 ± 0 % genital observations and the “Grade 5 (erection with masturbation and ejaculation)” value (male primates [3]; 0.3 mg/kg ip) was 0 ± 0 % genital observations. For the same compound, the “# of behavioral Purse Lip Gesture” value (male primates [3]; 1.0 mg/kg ip) was 7.5 ± 3.4 #, the “# of behavioral Yawning” value (male primates [3]; 1.0 mg/kg ip) was 11.3 ± 2.5 # and the “Grade 0 (glans hidden from view)” value (male primates [3]; 1.0 mg/kg ip) was 72.0 ± 12.0 % genital observations. The “Grade 1 (glans clearly visible)” value (male primates [3]; 1.0 mg/kg ip) was 26.6 ± 10.6 % genital observations, the “Grade 2 (penis extended)” value (male primates [3]; 1.0 mg/kg ip) was 1.4 ± 1.4 % genital observations and the “Grade 3 (full erection)” value (male primates [3]; 1.0 mg/kg ip) was 0 ± 0 % genital observations. For the same compound, the “Grade 4 (erection with masturbation)” value (male primates [3]; 1.0 mg/kg ip) was 0 ± 0 % genital observations, the “Grade 5 (erection with masturbation and ejaculation)” value (male primates [3]; 1.0 mg/kg ip) was 0 ± 0 % genital observations and the “# of behavioral Purse Lip Gesture” value (male primates [3]; 3.0 mg/kg ip) was 14.0 ± 8.3 #. The “# of behavioral Yawning” value (male primates [3]; 3.0 mg/kg ip) was 13 ± 3.4 #, the “Grade 0 (glans hidden from view)” value (male primates [3]; 3.0 mg/kg ip) was 56.8 ± 7.8 % genital observations and the “Grade 1 (glans clearly visible)” value (male primates [3]; 3.0 mg/kg ip) was 42.1 ± 8.3 % genital observations. For the same compound, the “Grade 2 (penis extended)” value (male primates [3]; 3.0 mg/kg ip) was 1.7 ± 1.4 % genital observations, the “Grade 3 (full erection)” value (male primates [3]; 3.0 mg/kg ip) was 0.3 ± 0.3 % genital observations and the “Grade 4 (erection with masturbation)” value (male primates [3]; 3.0 mg/kg ip) was 0 ± 0 % genital observations. For the same compound, the “Grade 5 (erection with masturbation and ejaculation)” value (male primates [3]; 3.0 mg/kg ip) was 0 ± 0 % genital observations, the “# of behavioral Purse Lip Gesture” value (male primates [3]; 10.0 mg/kg ip) was 33 ± 14* # and the “# of behavioral Yawning” value (male primates [3]; 10.0 mg/kg ip) was 14.0 ± 4.0 #. The “Grade 0 (glans hidden from view)” value (male primates [3]; 10.0 mg/kg ip) was 24.5 ± 7.6 % genital observations, the “Grade 1 (glans clearly visible)” value (male primates [3]; 10.0 mg/kg ip) was 72.1 ± 7.7* % genital observations and the “Grade 2 (penis extended)” value (male primates [3]; 10.0 mg/kg ip) was 2.5 ± 1.0 % genital observations. For the same compound, the “Grade 3 (full erection)” value (male primates [3]; 10.0 mg/kg ip) was 0.9 ± 0.6 % genital observations, the “Grade 4 (erection with masturbation)” value (male primates [3]; 10.0 mg/kg ip) was 0 ± 0 % genital observations and the “Grade 5 (erection with masturbation and ejaculation)” value (male primates [3]; 10.0 mg/kg ip) was 0 ± 0 % genital observations. For the same compound, the “grade 1 penile erections (in words)” value (male primates [3]; 0.1-10 mg/kg, primates observed in isolation, significance only at the highest dose) was “dose dependently (0.1-10 mg/kg) increased grade 1 penile erections”, the “Advanced grades of penile erection (grades 2-5) (in words)” value (male primates [3]; any dose (0.1-10 mg/kg)) was “not significantly affected at any dose” and the Responders (male rats [4]; 30 mg/kg p.o.) was 100%. For the same compound, the “maximum number of erections/rat” value (male rats [4]; 30 mg/kg p.o.) was 3 h⁻¹, the Responders (male rats [4]; 100 mg/kg p.o.) was 100% and the “maximum number of erections/rat” value (male rats [4]; 100 mg/kg p.o.) was 5 h⁻¹. The Serum cortisol (male rats [5]; [8]) was “not significantly altered”, the Serum prolactin (male rats [5]; [8]) was “not significantly altered” and the Rearing (male rats [5]; 16 mg/kg ip, n=15) was 77±5.9 rears/60 minutes. For the same compound, the erections (male rats [5]; 16 mg/kg ip, n=15) was 5.6±0.7 erections/60 minutes, the locomotion (male rats [5]; 16 mg/kg ip, n=15) was 20.7±3.3 moves and the non-penile grooming (male rats [5]; 16 mg/kg ip, n=15) was 22±4.8 grooms/60 minutes. The penile grooming (male rats [5]; 16 mg/kg ip, n=15) was 12.1±3.3 grooms/60 minutes, the ejaculations (male rats [5]; 16 mg/kg ip, n=15, 60 minute observation) was 1.8±0.1 ejaculations and the Rectal temperature (male rats [5]; 16 mg/kg, before and 1 hour after drug administration) was “not significantly altered”. For the same compound, the “number of test animals having Grade 0 penile response (glans are hidden from the view)” value (male primates [6]) was 1, the “number of test animals having Grade 1 penile response (glans are clearly visible)” value (male primates [6]) was 2 and the “number of test animals having Grade 2 penile response (penis is extended)” value (male primates [6]) was 2. The “number of test animals having Grade 3 penile response (full erection)” value (male primates [6]) was 2, the “number of test animals having Grade 4 penile response (erection with masturbation)” value (male primates [6]) was 1 and the “number of test animals having Grade 5 penile response (erection with masturbation and ejaculation)” value (male primates [6]) was 0. The “effect on tone of noradrenaline pre-contracted rabbit CC” value [7] was “failed to reduce tone”.
